Measured values: ChEMBL document CHEMBL1145570, “Design and synthesis of 2-pyridones as novel inhibitors of the Bacillus anthracis enoyl-ACP reductase” (Bioorg Med Chem Lett, 2008)
Values after ≈ are worked out from the molar mass of the structure shown.

Test system: Bacillus anthracis
Assay: microbe, parasite or virus in culture
Format: functional
Details: dANR

`COc1ccc(Cn2ccc(O)cc2=O)cc1` and `O=c1cc(O)ccn1Cc1ccc(O)cc1` cannot be ordered by MIC: greater than 80 µg/mL for the first, greater than 80 µg/mL for the second.

`O=c1cc(O)ccn1Cc1ccccc1` and `C#CCn1ccc(OCc2ccccc2)cc1=O` cannot be ordered by MIC: greater than 80 µg/mL for the first, greater than 100 µg/mL for the second.

`CC(=O)Nc1ccc(Cn2ccc(OCc3ccccc3)cc2=O)c(Cl)c1` and `O=C(O)c1ccc(Cn2ccc(OCc3ccccc3)cc2=O)c(Cl)c1` cannot be ordered by MIC: greater than 80 µg/mL for the first, greater than 80 µg/mL for the second.

`O=c1[nH]c(OCc2ccccc2)ccc1Cc1ccccc1` and `O=c1cc(OCc2ccccc2)ccn1Cc1ccccc1` cannot be ordered by MIC: greater than 100 µg/mL for the first, greater than 80 µg/mL for the second.

`COc1ccc(Oc2ccccc2Cl)c(=O)[nH]1` and `COc1ccc(Oc2ccc(Cl)cc2Cl)c(=O)[nH]1` cannot be ordered by MIC: greater than 100 µg/mL for the first, greater than 100 µg/mL for the second.

Going from `[O-][n+]1cc(Cl)ccc1Oc1ccc(Cl)cc1Cl` to `Oc1cc(Cl)ccc1Oc1ccc(Cl)cc1Cl` [TRICLOSAN], the MIC falls from greater than 100 µg/mL to 3.1 µg/mL (≈ 10.7 µM).

First: O=c1cc(OCc2ccccc2)ccn1Cc1ccccc1Cl
Second: Nc1ccc(Cn2ccc(OCc3ccccc3)cc2=O)c(Cl)c1
The MIC of the first is lower: 16 µg/mL (≈ 49.1 µM) for the first, greater than 80 µg/mL for the second.

`COc1ccc(Cn2ccc(OCCCn3c4ccccc4c4ccccc43)cc2=O)cc1` and `O=c1cc(OCCCn2c3ccccc3c3ccccc32)ccn1Cc1ccccc1` cannot be ordered by MIC: greater than 80 µg/mL for the first, greater than 80 µg/mL for the second.

`O=c1cc(OCc2cccc3ccccc23)ccn1Cc1ccccc1Cl` and `O=c1cc(OCc2ccc3ccccc3c2)ccn1Cc1ccccc1Cl` cannot be ordered by MIC: greater than 80 µg/mL for the first, greater than 80 µg/mL for the second.

`O=c1cc(OCc2ccccc2)ccn1Cc1ccc([N+](=O)[O-])cc1Cl` and `N#Cc1ccc(Cn2ccc(OCc3ccccc3)cc2=O)c(Cl)c1` cannot be ordered by MIC: greater than 80 µg/mL for the first, greater than 80 µg/mL for the second.

`NC(=O)c1ccc(Cn2ccc(OCc3ccccc3)cc2=O)c(Cl)c1` and `N#Cc1ccc(COc2ccn(Cc3ccccc3Cl)c(=O)c2)cc1` cannot be ordered by MIC: greater than 80 µg/mL for the first, greater than 80 µg/mL for the second.

`O=c1cc(OCCCn2nnc3ccccc32)ccn1Cc1ccccc1Cl` and `O=c1cc(OCCCn2ccc3ccccc32)ccn1Cc1ccccc1Cl` cannot be ordered by MIC: greater than 80 µg/mL for the first, greater than 80 µg/mL for the second.

`O=c1cc(OCCCn2ccnc2)ccn1Cc1ccccc1Cl` and `O=c1cc(OCCCn2c3ccccc3c3ccccc32)ccn1Cc1ccccc1Cl` cannot be ordered by MIC: greater than 80 µg/mL for the first, greater than 80 µg/mL for the second.

`COc1ccc(Oc2ccccc2Cl)c[n+]1[O-]` and `CCOC(=O)c1cc(Cn2ccc(OCc3ccccc3)cc2=O)on1` cannot be ordered by MIC: greater than 100 µg/mL for the first, greater than 100 µg/mL for the second.
